Assay results published in ChEMBL document CHEMBL2150933 (J Med Chem, 2012).
The source made the active and inactive calls. No cut-off for these calls is given here.

Assays:
OVCAR-4 = experiment: Cytotoxicity against human OVCAR4 cells after 48 hrs by SRB assay; type: functional; settings: OVCAR-4, 48 h
LOX IMVI = experiment: Cytotoxicity against human LOXIMVI cells after 48 hrs by SRB assay; type: functional
MDA-MB-231 = experiment: Cytotoxicity against human MDA-MB-231 cells after 48 hrs by SRB assay; type: functional; settings: MDA-MB-231, 48 h
Mus musculus [1] = experiment: Toxicity in athymic nu/nu Harlan mouse xenografted with human COLO205 cells assessed as mortality at 20 mg/kg, iv administered Q3D for 10 days relative to control; type: organism-based, COLO 205; design: dose 20 mg/kg, route intravenous; settings: in vivo, 240 h
BT-549 = experiment: Cytotoxicity against human BT549 cells after 48 hrs by SRB assay; type: functional; settings: BT-549, 48 h
SN12C = experiment: Cytotoxicity against human SN12C cells after 48 hrs by SRB assay; type: functional
CCRF-CEM = experiment: Cytotoxicity against human CCRF-CEM cells after 48 hrs by SRB assay; type: functional
Mus musculus [2] = experiment: Toxicity in athymic nu/nu Harlan mouse xenografted with human COLO205 cells assessed as change in body weight at 20 mg/kg, iv administered Q3D for 10 days relative to control; type: organism-based, COLO 205; design: dose 20 mg/kg, route intravenous; settings: in vivo, 240 h
COLO 205 [3] = experiment: Cytotoxicity against human COLO205 cells after 48 hrs by SRB assay; type: functional; settings: COLO 205, 48 h, read-out: pGI50 (converted)
RPMI-8226 = experiment: Cytotoxicity against human RPMI8226 cells after 48 hrs by SRB assay; type: functional; settings: RPMI-8226, 48 h
M14 = experiment: Cytotoxicity against human M14 cells after 48 hrs by SRB assay; type: functional; settings: M14, 48 h
HL-60 = experiment: Cytotoxicity against human HL60 cells after 48 hrs by SRB assay; type: functional; settings: HL-60, 48 h
UACC-62 = experiment: Cytotoxicity against human UACC62 cells after 48 hrs by SRB assay; type: functional; settings: UACC-62, 48 h
UACC-257 = experiment: Cytotoxicity against human UACC257 cells after 48 hrs by SRB assay; type: functional; settings: UACC-257, 48 h
Hs-578T = experiment: Cytotoxicity against human Hs578T cells after 48 hrs by SRB assay; type: functional
Mus musculus [4] = experiment: Toxicity in athymic nu/nu Harlan mouse xenografted with human SK-MEL-2 cells assessed as mortality at 20 mg/kg, iv administered Q3D for 10 days relative to control; type: organism-based; design: dose 20 mg/kg, route intravenous; settings: in vivo, 240 h
UO-31 = experiment: Cytotoxicity against human UO31 cells after 48 hrs by SRB assay; type: functional; settings: UO-31, 48 h
NCI-H226 = experiment: Cytotoxicity against human NCI-H226 cells after 48 hrs by SRB assay; type: functional; settings: NCI-H226, 48 h
RXF 393 = experiment: Cytotoxicity against human RXF393 cells after 48 hrs by SRB assay; type: functional; settings: RXF 393, 48 h
MCF7 = experiment: Cytotoxicity against human MCF7 cells after 48 hrs by SRB assay; type: functional; settings: MCF7, 48 h
A549 = experiment: Cytotoxicity against human A549 cells after 48 hrs by SRB assay; type: functional; settings: A549, 48 h, read-out: pGI50 (converted)
[5] = Toxicity in ip dosed CD1 mouse administered as single dose; type: organism-based; settings: in vivo
K562 = experiment: Cytotoxicity against human K562 cells after 48 hrs by SRB assay; type: functional; settings: K562, 48 h
U-251 = experiment: Cytotoxicity against human U251 cells after 48 hrs by SRB assay; type: functional; settings: U-251, 48 h, read-out: pGI50 (converted)
[6] = Cytotoxicity against human NCI-ADR-RES cells after 48 hrs by SRB assay; type: functional
CAKI-1 = experiment: Cytotoxicity against human Caki1 cells after 48 hrs by SRB assay; type: functional; settings: CAKI-1, 48 h
EKVX = experiment: Cytotoxicity against human EKVX cells after 48 hrs by SRB assay; type: functional
Mus musculus [7] = experiment: Toxicity in athymic nu/nu Harlan mouse xenografted with human SK-MEL-2 cells assessed as change in body weight at 20 mg/kg, iv administered Q3D for 10 days relative to control; type: organism-based; design: dose 20 mg/kg, route intravenous; settings: in vivo, 240 h
SK-MEL-2 = experiment: Antitumor activity against human SK-MEL-2 cells xenografted in athymic nu/nu Harlan mouse assessed as tumor growth inhibition at 10 mg/kg, iv administered Q2D for 10 days relative to control; type: functional, organism-based; design: dose 10 mg/kg
HCC 2998 = experiment: Cytotoxicity against human HCC2998 cells after 48 hrs by SRB assay; type: functional; settings: HCC 2998, 48 h
PC-3 = experiment: Cytotoxicity against human PC3 cells after 48 hrs by SRB assay; type: functional; settings: PC-3, 48 h
COLO 205 [8] = experiment: Antitumor activity against human COLO205 cells xenografted in athymic nu/nu Harlan mouse assessed as tumor growth inhibition at 10 mg/kg, iv administered Q2D for 10 days relative to control; type: functional, organism-based; design: dose 10 mg/kg
A498 = experiment: Cytotoxicity against human A498 cells after 48 hrs by SRB assay; type: functional; settings: A498, 48 h
KM12 = experiment: Cytotoxicity against human KM12 cells after 48 hrs by SRB assay; type: functional; settings: KM12, 48 h
[9] = Plasma concentration in CD1 mouse at 18 mg/kg, iv administered as single dose measured after 5 mins; type: ADME, organism-based; design: dose 18 mg/kg, route intravenous
SW-620 = experiment: Cytotoxicity against human SW620 cells after 48 hrs by SRB assay; type: functional; settings: SW-620, 48 h
SNB-75 = experiment: Cytotoxicity against human SNB75 cells after 48 hrs by SRB assay; type: functional; settings: SNB-75, 48 h
Mus musculus [10] = experiment: Toxicity in athymic nu/nu Harlan mouse xenografted with human COLO205 cells assessed as mortality at 10 mg/kg, iv administered Q2D for 10 days relative to control; type: organism-based, COLO 205; design: dose 10 mg/kg, route intravenous; settings: in vivo, 240 h
NCI-H23 = experiment: Cytotoxicity against human NCI-H23 cells after 48 hrs by SRB assay; type: functional; settings: NCI-H23, 48 h

CO[C@@H]([C@@H]1Cc2cc3cc(O[C@H]4C[C@@H](O[C@H]5C[C@@H](O)[C@H](O)[C@@H](C)O5)[C@H](O)[C@@H](C)O4)c(C)c(O)c3c(O)c2C(=O)[C@H]1O[C@H]1C[C@@H](O[C@H]2C[C@@H](O[C@H]3C[C@H](O)[C@H](O)[C@@H](C)O3)[C@H](O)[C@@H](C)O2)[C@H](O)[C@@H](C)O1)[C@@H](O)C(C)=O
GI50 (OVCAR-4): 56.2 nM | GI50 (LOX IMVI): 16.6 nM | GI50 (MDA-MB-231; read-out: GI50): 50 nM | GI50 (MDA-MB-231; read-out: pGI50 (converted)): 47.9 nM | Activity (Mus musculus [1]): Non-toxic | GI50 (BT-549): 18.2 nM | GI50 (SN12C): 20.9 nM | GI50 (CCRF-CEM): 24.6 nM | Activity (Mus musculus [2]): Non-toxic | GI50 (COLO 205 [3]): 21.4 nM | GI50 (RPMI-8226): 16.2 nM | GI50 (M14): 45.7 nM | GI50 (HL-60): 24 nM | GI50 (UACC-62): 12 nM | GI50 (UACC-257): 41.7 nM | GI50 (Hs-578T): 16.2 nM | Activity (Mus musculus [4]): Non-toxic | GI50 (UO-31): 69.2 nM | GI50 (NCI-H226): 20.4 nM | GI50 (RXF 393): 29.5 nM | GI50 (MCF7): 13.8 nM | GI50 (A549): 20.4 nM | MTD [5]: 200 mg/kg | GI50 (K562): 17.4 nM | GI50 (U-251): 18.6 nM | GI50 [6]: 50100 nM | GI50 (CAKI-1): 138 nM | GI50 (EKVX): 85.1 nM | Activity (Mus musculus [7]): Non-toxic | TGI (SK-MEL-2): Active | GI50 (HCC 2998): 16.2 nM | GI50 (PC-3): 21.4 nM | TGI (COLO 205 [8]): Active | GI50 (A498): 14.4 nM | GI50 (KM12): 17.8 nM | concentration at 5 min [9]: 28 µM | GI50 (SW-620): 22.4 nM | GI50 (SNB-75): 32.4 nM | Activity (Mus musculus [10]): Non-toxic | GI50 (NCI-H23): 22.4 nM
